Assays:
MCF-7 cells = test: Annexin V-FITC and PI double staining; type: cell-based, human; details: MCF-7, IC50 dose, 24 h
Experimental: (§1) To analyze if the cells have undergone necrosis or apoptosis because of 24 h of rolipram treatment, cells were double stained with Annexin V-FITC and PI using BD Pharmingen Annexin V:FITC Apoptosis Detection Kit (BD Biosciences; catalog no.: BD556547) using the manufacturer’s protocol. The data obtained from BD LSRFortessa flow cytometer (RRID: SCR_019600) were analyzed using BD FACSDiva 9.0 software ([31], [32]) (RRID: SCR_001456).

MDA-MB-231 cells = test: Annexin V-FITC and PI double staining; type: cell-based, human; details: MDA-MB-231, IC50 dose, 24 h
Experimental: as §1

[1] = test system: 4T1 mice breast carcinoma cells, mammary fat pad tumor; test: Solid tumor in mice, tumor weight and volume; type: in vivo, BALB/c mice; details: vs untreated tumor
Experimental: (§2) Solid tumors were developed in BALB/c mice (n = 3) except the control group (group I) by injecting 1 × 10^4 viable 4T1 (RRID: CVCL_0125) mice breast carcinoma cells (resuspended in 50 μl of PBS) into the inguinal fourth mammary fat pad, and the tumor was allowed to develop for 14 days ([37], [38]). Mice were randomly divided into three groups, viz., untreated tumor (group II), mice treated intraperitoneally with 1 mg//kg bodyweight of rolipram (group III), and mice receiving 5 mg/kg bodyweight of rolipram, intraperitoneally (group IV) ([39], [40]). After 14 days, the mice were sacrificed. Lung, kidney, liver, serum, and the tumors were collected for further experiments ([15]).
Weight of mammary fat pad of mice from group I and weight of tumors from groups II, III, and IV were measured using digital fine balance. Width and length of the tumors obtained from mice of groups II, III, and IV were measured using digital Vernier caliper. The volume was measured by the formula V = half × (W × W × L), where V is the volume, W is the width, and L is the length of the tumors ([15], [41]).

[2] = test system: 4T1 mice breast carcinoma cells, mammary fat pad tumor; test: Histological study of mammary tissue and lung of tumor-bearing mice; type: in vivo, BALB/c mice; details: for number of cells per unit area (480 px × 400 px) of lung histological sections: tumor-induced 213 ± 20, control 143 ± 19, mean ± SD
Experimental: as §2
Tissue samples of mammary tissue, lung, kidney, and liver from each group of mice were fixed in Bouin’s solution (Sigma–Aldrich; catalog no.: HT10132), dehydrated in graded alcohol, and embedded in paraffin wax. Thin sections (5 μm) of tissues were mounted on glass slides and stained with hematoxylin (Sigma–Aldrich; catalog no.: H3136), following rehydration with graded alcohol. The samples were again dehydrated with graded alcohol and stained with eosin and mounted with Dystyrene Plasticizer Xylene ([42]). The images were obtained in an Olympus CKX53 Inverted Microscope (RRID: SCR_025025) at 10X magnifications with MagVision Software (Magnus). The QuPath (RRID: SCR_018257) software ([43]) was used to detect the cells and determine the area of individual cells and their corresponding nuclei in each image. The tab-delimited text file obtained from QuPath software was utilized by NumPy ([44]) (RRID: SCR_008633) to determine the nucleus-to-cytoplasm ratio of individual cells, and the frequency (cell count) of the nucleus-to-cytoplasm ratio was plotted by MatPlotLib (RRID: SCR_008624), a Python (RRID: SCR_008394) 2D plotting library. For quantifying the number of cells in a unit area of histological section of lung, each section image was divided into 12 equal parts (dimensions: 480 px × 400 px). The number of cells in each part was obtained from QuPath (RRID: SCR_018257) software, and the values were represented as mean ± SD.

PKA = test: Immunohistochemistry of tumor tissue, PKA; type: in vivo, BALB/c mice
Experimental: as §2
Mice mammary fat pad and mammary tumor tissues were processed as for histology, and 5 μm-thick sections were mounted on glass slides. The tissue sections were deparaffinized with xylene and hydrated with […] grades of alcohols (100% to 70%). Rehydrated sections were equilibrated in PBS. Antigen retrieval was performed by boiling the sections in a 0.1 M sodium citrate buffer (pH 6.0) for 10 min. […] The frequency (cell count) of positive and negative cells as well as the mean absorbance of the positive cells were plotted using MatPlotLib (RRID: SCR_008624), a Python (RRID: SCR_008394) 2D plotting library.

[3] = Bodyweight of tumor-bearing mice; type: in vivo, BALB/c mice; details: intraperitoneally
Experimental: as §2

[4] = Histological analysis of liver of tumor-bearing mice; type: in vivo, BALB/c mice; details: rolipram-treated tumor-bearing mice; dilation observed in untreated tumor-bearing mice
Experimental: as §2
Tissue samples of mammary tissue, lung, kidney, and liver from each group of mice were fixed in Bouin’s solution (Sigma–Aldrich; catalog no.: HT10132), dehydrated in graded alcohol, and embedded in paraffin wax. Thin sections (5 μm) of tissues were mounted on glass slides and stained with hematoxylin (Sigma–Aldrich; catalog no.: H3136), following rehydration with graded alcohol. The samples were again dehydrated with graded alcohol and stained with eosin and mounted with Dystyrene Plasticizer Xylene ([42]). […] For quantifying the number of cells in a unit area of histological section of lung, each section image was divided into 12 equal parts (dimensions: 480 px × 400 px). […]

[5] = 1 mg/kg bodyweight i.p., 14 days of treatment
[6] = 5 mg/kg bodyweight i.p., 14 days

COc1ccc(C2CNC(=O)C2)cc1OC1CCCC1 (stereo not drawn) [rolipram, Rolipram]
increase in the dead cell population (MCF-7 cells): 8.1% | increase in the dead cell population (MDA-MB-231 cells): 5.2% | reduction of tumor volume [1, 5]: twofold | reduction of tumor weight [1, 5]: twofold | reduction of tumor volume [1, 6]: 2.8 fold | reduction of tumor weight [1, 6]: 3.4 fold | number of cells per unit area (480 px × 400 px) of lung histological sections ([2]; 1 mg/kg bodyweight): 154 ± 11 | number of cells per unit area (480 px × 400 px) of lung histological sections ([2]; 5 mg/kg bodyweight): 119 ± 10 | metastatic cellular infiltration in the lung tissues ([2]; rolipram-treated tumor-bearing mice): significantly reduce | multinucleated cells in the mammary fat pad and glandular region ([2]; rolipram-treated tumor-bearing mice, p < 0.001): reduced | increase of PKA-positive cells compared with tumor tissues (PKA; 1 mg/kg bodyweight): ~1.5 fold | increase of PKA-positive cells compared with tumor tissues (PKA; 5 mg/kg bodyweight): ~1.5 fold | bodyweight of tumor-bearing mice ([3]; 1 mg/kg bodyweight): No significant changes | bodyweight of tumor-bearing mice ([3]; 5 mg/kg bodyweight): No significant changes | hepatic vein dilation [4]: not evident

From publication PMC11879692, “PDE4 inhibitor rolipram represses hedgehog signaling via ubiquitin-mediated proteolysis of GLI transcription factors to regress breast cancer” (The Journal of Biological Chemistry, 2025)
